Laboratory results: patent US20150315211A1, “SMALL MOLECULES FOR THE MODULATION OF MCL-1 AND METHODS OF MODULATING CELL DEATH, CELL DIVISION, CELL DIFFERENTIATION AND METHODS OF TREATING DISORDERS” (priority 2010, published 2015)
Read-outs that look alike come from different tables or passages of the source.

Experiments:
MCL-1ΔNΔC [1] = assay: High-throughput competitive FP binding screen, FITC-MCL-1 SAHB/MCL-1ΔNΔC interaction
MCL-1ΔNΔC [2] = molecular target: MCL-1ΔNΔC (Homo sapiens, UniProt Q07820); assay: as above; parameters: the C-terminal alpha-helix was deleted from each of these constructs; GST (N, cleaved yes); made in house
BCL-XLΔC = BCL-XLΔC (Homo sapiens, UniProt Q07817); assay: High-throughput competitive FP binding screen, FITC-BAD BH3/BCL-XLΔC interaction
[3] = selectivity for MCL-1ΔNΔC over BCL-XLΔC targeting (BCL-XL % Bound minus MCL-1 % Bound)
[4] = FITC-MCL-1 SAHB/MCL-1ΔNΔC interaction pair, competitive FP screen
[5] = FITC-BAD BH3/BCL-XLΔC interaction pair, competitive FP screen

Sequence of MCL-1ΔNΔC (Homo sapiens, UniProt Q07820) (Q07820 172-320 limits assumed, stated change not applied): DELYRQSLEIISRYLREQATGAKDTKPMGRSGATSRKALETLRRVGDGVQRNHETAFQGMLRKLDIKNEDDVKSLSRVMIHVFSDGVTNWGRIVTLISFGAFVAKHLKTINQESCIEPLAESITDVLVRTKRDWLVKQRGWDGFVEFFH
Sequence of BCL-XLΔC (Q07817 1-212 limits assumed, stated change not applied): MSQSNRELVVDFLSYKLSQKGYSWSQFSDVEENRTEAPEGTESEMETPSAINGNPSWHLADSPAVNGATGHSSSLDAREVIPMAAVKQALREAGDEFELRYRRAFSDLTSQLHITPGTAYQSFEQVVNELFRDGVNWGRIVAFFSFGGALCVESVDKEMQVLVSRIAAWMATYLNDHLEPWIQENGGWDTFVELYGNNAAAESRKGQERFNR

With CC(C)C(C(=O)O)N1C(=O)/C(=C/C=C/c2ccco2)SC1=S (stereo not shown) the “Spec Values” (MCL-1ΔNΔC [1]; [3]) was 76.69, the “MCL-1% Bound” value (MCL-1ΔNΔC [2]; [4]) was 26.08% and the “BCL-XL % Bound” value (BCL-XLΔC; [5]) was 102.8%.
Cc1ccc2c(c1)CC[C@H]1C3CC[C@H](NCCCCCCN4C(=O)C=CC4=O)[C@@]3(C)CC[C@H]21 (stereo partly shown) [U73122, reference compound] was tested, and the “Spec Values” (MCL-1ΔNΔC [1]; [3]) was 49.67, the “MCL-1% Bound” value (MCL-1ΔNΔC [2]; [4]) was 56.6% and the “BCL-XL % Bound” value (BCL-XLΔC; [5]) was 106.3%.
In the case of CCCN1C(=O)C(C#N)=C(C)/C(=C\c2ccc(-c3ccc(Br)cc3)o2)C1=O, the “Spec Values” (MCL-1ΔNΔC [1]; [3]) is reported as 81.6, the “MCL-1% Bound” value (MCL-1ΔNΔC [2]; [4]) is reported as 20.59% and the “BCL-XL % Bound” value (BCL-XLΔC; [5]) is reported as 102.2%.
With O=C(O)C(Cc1ccccc1)N1C(=O)/C(=C\c2ccco2)SC1=S (stereo not shown) the “Spec Values” (MCL-1ΔNΔC [1]; [3]) was 68.92, the “MCL-1% Bound” value (MCL-1ΔNΔC [2]; [4]) was 21.29% and the “BCL-XL % Bound” value (BCL-XLΔC; [5]) was 90.21%.
In the case of Cc1ccc(/C=C2\C(=O)N(c3ccccc3)c3ccccc32)o1, the “Spec Values” (MCL-1ΔNΔC [1]; [3]) is reported as 47.36, the “MCL-1% Bound” value (MCL-1ΔNΔC [2]; [4]) is reported as 62.72% and the “BCL-XL % Bound” value (BCL-XLΔC; [5]) is reported as 110.1%.
For CC1=C(C#N)C(=O)N(CC(C)O)C(=O)/C1=C/c1ccc(-c2ccc(C(=O)OC(C)C)cc2)o1 (stereo not shown), the “Spec Values” (MCL-1ΔNΔC [1]; [3]) was 77.49, the “MCL-1% Bound” value (MCL-1ΔNΔC [2]; [4]) was 30.2% and the “BCL-XL % Bound” value (BCL-XLΔC; [5]) was 107.7%.
For C=CCN1C(=O)C(C#N)=C(C)/C(=C\c2ccc(-c3cccc(C(=O)O)c3)o2)C1=O, the “Spec Values” (MCL-1ΔNΔC [1]; [3]) was 57.81, the “MCL-1% Bound” value (MCL-1ΔNΔC [2]; [4]) was 31.43% and the “BCL-XL % Bound” value (BCL-XLΔC; [5]) was 89.24%.
For CCCCSC1=C(C#N)C(=O)NC(c2ccc(OC)cc2)S1 (stereo not shown), the “Spec Values” (MCL-1ΔNΔC [1]; [3]) was 74.73, the “MCL-1% Bound” value (MCL-1ΔNΔC [2]; [4]) was 24.59% and the “BCL-XL % Bound” value (BCL-XLΔC; [5]) was 99.33%.
For CS/C(=N\S(=O)(=O)c1ccccc1)NNc1ccccc1, the “Spec Values” (MCL-1ΔNΔC [1]; [3]) was 59.46, the “MCL-1% Bound” value (MCL-1ΔNΔC [2]; [4]) was 39.93% and the “BCL-XL % Bound” value (BCL-XLΔC; [5]) was 99.39%.
For Cc1cccc(CSc2ccc(-c3ccco3)nn2)c1, the “Spec Values” (MCL-1ΔNΔC [1]; [3]) was 50.6, the “MCL-1% Bound” value (MCL-1ΔNΔC [2]; [4]) was 44.76% and the “BCL-XL % Bound” value (BCL-XLΔC; [5]) was 95.36%.
In the case of CCOC(=O)c1ccc(-c2ccc(/C=C3\S/C(=N\N=C4/C(=O)Nc5ccccc54)NC3=O)o2)cc1, the “Spec Values” (MCL-1ΔNΔC [1]; [3]) is reported as 53.34, the “MCL-1% Bound” value (MCL-1ΔNΔC [2]; [4]) is reported as 13.28% and the “BCL-XL % Bound” value (BCL-XLΔC; [5]) is reported as 66.63%.
Cc1conc1NC(c1cccs1)c1ccc2cccnc2c1O (stereo not shown) was tested, and the “Spec Values” (MCL-1ΔNΔC [1]; [3]) was 45.42, the “MCL-1% Bound” value (MCL-1ΔNΔC [2]; [4]) was 58.33% and the “BCL-XL % Bound” value (BCL-XLΔC; [5]) was 103.8%.
In the case of CC1=CC(=O)C(CCCC2=CC(=O)C=CC2=O)=CC1=O, the “Spec Values” (MCL-1ΔNΔC [1]; [3]) is reported as 48.07, the “MCL-1% Bound” value (MCL-1ΔNΔC [2]; [4]) is reported as 44.41% and the “BCL-XL % Bound” value (BCL-XLΔC; [5]) is reported as 92.47%.
In the case of O=c1cc(-c2ccccc2)oc2cc(O)c(O)c(O)c12 [drawing 161], the “Spec Values” (MCL-1ΔNΔC [1]; [3]) is reported as 93.84, the “MCL-1% Bound” value (MCL-1ΔNΔC [2]; [4]) is reported as 10.32% and the “BCL-XL % Bound” value (BCL-XLΔC; [5]) is reported as 104.2%.
CSc1ncc(/C=C2/C(=O)NC(=O)N(C3CCCCC3)C2=O)cn1 was tested, and the “Spec Values” (MCL-1ΔNΔC [1]) was 52.58, the “MCL-1% Bound” value (MCL-1ΔNΔC [2]) was 46.42% and the “BCL-XL % Bound” value (BCL-XLΔC) was 99%.
O=C1N=C(Nc2cccc(Cl)c2Cl)S/C1=C/c1ccco1 was tested, and the “Spec Values” (MCL-1ΔNΔC [1]; [3]) was 73.87, the “MCL-1% Bound” value (MCL-1ΔNΔC [2]; [4]) was 15.57% and the “BCL-XL % Bound” value (BCL-XLΔC; [5]) was 89.44%.
CCCCn1c2ccccc2c2nnc(S)nc21 was tested, and the “Spec Values” (MCL-1ΔNΔC [1]; [3]) was 48.16, the “MCL-1% Bound” value (MCL-1ΔNΔC [2]; [4]) was 44.24% and the “BCL-XL % Bound” value (BCL-XLΔC; [5]) was 92.39%.
With O=C1C(Sc2nc[nH]n2)=C/C(=N/S(=O)(=O)c2ccc(F)cc2)c2ccccc21 the “Spec Values” (MCL-1ΔNΔC [1]; [3]) was 91.16, the “MCL-1% Bound” value (MCL-1ΔNΔC [2]; [4]) was 4.952% and the “BCL-XL % Bound” value (BCL-XLΔC; [5]) was 96.12%.
For Oc1c(C(c2cccs2)N2CCCCC2)ccc2cccnc12 (stereo not shown), the “Spec Values” (MCL-1ΔNΔC [1]; [3]) was 105.7, the “MCL-1% Bound” value (MCL-1ΔNΔC [2]; [4]) was 9.463% and the “BCL-XL % Bound” value (BCL-XLΔC; [5]) was 115.2%.
O=c1c(O)c(-c2cc(O)c(O)c(O)c2)oc2cc(O)cc(O)c12 [Myricetin, reference compound] was tested, and the “Spec Values” (MCL-1ΔNΔC [1]; [3]) was 68.23, the “MCL-1% Bound” value (MCL-1ΔNΔC [2]; [4]) was 34.13% and the “BCL-XL % Bound” value (BCL-XLΔC; [5]) was 102.4%.
CC1=C(CC/C(C)=C/CCC2C=CC(C3=CC(=O)OC3O)OC2O)C(C)(C)CCC1 (stereo not shown) [drawing 17] was tested, and the “Spec Values” (MCL-1ΔNΔC [1]) was 71.82.
In the case of O=c1oc2c(O)c(O)cc3c(=O)oc4c(O)c(O)cc1c4c23 [drawing 165], the “Spec Values” (MCL-1ΔNΔC [1]; [3]) is reported as 89.32 and the “MCL-1% Bound” value (MCL-1ΔNΔC [2]; [4]) is reported as 1.26%.
For O=c1c(O)c(-c2ccc(O)c(O)c2)oc2cc(O)cc(O)c12 [drawing 15], the “MCL-1% Bound” value (MCL-1ΔNΔC [2]; [4]) was 16.69% and the “BCL-XL % Bound” value (BCL-XLΔC; [5]) was 105.3%.
For CCOc1cc(C(Nc2cccnc2)c2ccc3cccnc3c2O)ccc1O (stereo not shown) [drawing 35], the “MCL-1% Bound” value (MCL-1ΔNΔC [2]; [4]) was −0.3%.
For CC1=C(CC/C(C)=C/CCC2C=CC(C3=CC(=O)OC3O)OC2O)C(C)(C)CCC1 (stereo not shown) [drawing 207], the “Spec Values” (MCL-1ΔNΔC [1]) was 71.82.
